Legend:
[1] = tested on: clinical population with AAA; settings: large clinical population (ref 10); cited from earlier work
FVB/tac mice [2] = assay: Murine AAA model (topical elastase, BAPN, anti-TGFβ), aortic diameter by ultrasound
Experimental: To augment aneurysm growth and induce ILT as described (26), anti—TGFβ blocking antibody (250 μg/mouse) was injected i.p. three times weekly starting the day of surgery. Each mouse (20-30 g in weight) is given 1 mL subcutaneous physiologic saline before surgical incision to account for insensible volume losses with gut externalization. Surgical procedures were conducted on a surgical heating pad at 37 ° C. Mice were anesthetized with isoflurane anesthesia (3% by nosecone) using oxygen as the carrier. Buprenorphine (0.05 mg/Kg) is given 30 minutes prior to skin incision. The area of incision is cleaned with 70% ethanol and betadine three times, and then infiltrated gently with local anesthesia (bupivacaine 5 mg/Kg SQ immediately prior to incision). A midline abdominal incision is made through the skin. The rectus sheath was divided at the Linea Alba. The intestines are exteriorized with a Qtip to the left of mouse onto gauze soaked with saline above and below to prevent drying. Whatman paper 6 mm×9 mm slices were placed on top of aorta below the bifurcation of the renal arteries. […] Hyperalgesia was assessed immediately after the procedure, and then twice daily for 48 hrs, and maintenance dose buprenorphine (0.05 mg/Kg) was given 8 hrs post-surgery, and then maintained at this dose for 48 hrs post-surgery. […]

patients with small AAA = settings: randomized clinical trial (ref 14); cited from earlier work
healthy platelets [3] = assay: Platelet calcium transients (Fura-2 fluorescence); format: cell-based, human; settings: 300 μM, n=5
Description: (§1) FIG. 5. A conserved olfactory receptor signal transduction pathway in healthy platelets. A. Proposed platelet OR2L13 signal transduction. Levo-carvone (L-Carvone) binds to OR2L13 on platelets to generate cAMP through adenylyl cyclase activation, and cAMP changes the cytosolic concentration of calcium (Ca 2+) directly and chloride conductance (C1^−) while inhibiting platelet reactivity through known, well-described mechanisms involving protein kinase (PKA). […] C. […] Data are mean±SEM (n=4, MQAE fluorescence). *P=0.0134 (−) carvone vs control by student's t-test. D. Carvone stimulation (300 μM) of healthy platelets promotes local brief calcium transients 20-80% above baseline is sustained compared with thrombin which attenuates over time (n=5 human platelets, Fura-2 fluorescence). MQAE=-[ethoxycarbonylmethyl]-6-methoxy-quinoliniumbromide. Arrowhead=drug addition.
(§2) ORs and downstream anoctamin proteins are generally expressed in afferent olfactory neurons (23). ORs are GPCRs positively linked to AC to increase cAMP (24), triggering […] as a downstream calcium-sensitive chloride channel (25). If this signal transduction pathway is conserved in platelets, OR2L13 activation should generate cAMP in platelets coincident with changes in platelet Cl^−- and Ca^2+ flux (schematic, FIG. 5A). […]

[4] = Circulating platelet number in treated mice; format: in vivo, mouse; settings: 100 mg/Kg/day i.p. for three days, FVB/tac mice
Experimental: To ascertain whether exogenous (−) carvone in mice impacted platelet reactivity and thrombosis in vivo, FVB/tac mice were administered (−) carvone at a dose of 100 mg/Kg/day for three days by i.p. injection. Platelets were then isolated from mice and thrombin-stimulated ex vivo. Thrombin-induced platelet degranulation ex vivo was inhibited in platelets from (−) carvone-treated mice (FIG. 7C). […] This effect is consistent with adequate absorption and distribution of (−) carvone to attenuate platelet activation and thrombosis in vivo.

[5] = tested on: platelets from healthy humans; assay: Light transmission aggregometry, ADP-induced platelet aggregation; format: cell-based, human; settings: 30 minutes preincubation, ADP 0.1 μM
Experimental: FIG. 6. […] A. Platelets were isolated from healthy humans and preincubated with (−) carvone or (+) carvone (300 μM) for 30 minutes. Platelets were stimulated with ADP (0.1 μM) and light transmission aggregometry assessed platelet activation. Representative tracings for each agonist are shown. B. Carvone (300 μM) or forskolin (10 μM) incubation individually or together for 30 minutes followed by platelet stimulation with ADP (0.1 μM). Light transmission aggregometry assessed platelet activation. Representative aggregometry tracings are shown. V=vehicle, C=(−)carvone, F=forskolin. Differences between groups by one-way ANOVA followed by Bonferroni correction *P<0.0001, **P=0.0003, ***P<0.0001 vs. vehicle (n=3). C. […] D. Platelets isolated from healthy humans and preincubated with (−) carvone (0-500 μM) for 30 minutes then stimulated with ADP (0.1 μM). Light transmission aggregometry assessed platelet activation. Representative tracings for each agonist are shown. E. Summary data for each concentration of (−) carvone as mean±SEM by ANOVA in the presence of ADP stimulation (0.1 μM). The downward red arrow is ADP in the presence of vehicle to which all data points were compared. *P<0.05 vs. vehicle, n=3 in each group by ANOVA, followed by Bonferroni correction. The broken blue line indicates the log IC50 concentration of (−) carvone. […]

healthy human blood = assay: Thrombus formation in collagen-I coated microfluidics chamber at high shear; format: cell-based; settings: 300 μM, 30 minutes, 40 dyn/cm^2, three minutes
Experimental: (§3) FIG. 7. Biomechanical platelet activation is inhibited by OR2L13 agonists. A. In vitro exposure of healthy platelets to steady laminar flow (S-flow) or disturbed flow (D-flow) for 60 mins after 30 minute pre-treatment with vehicle or (−) Carvone (300 μM). Platelet activation quantified by surface p-selectin expression as mean fluorescence intensity (MFI)±SEM, n=3 in each group by 2-way ANOVA. B. Calcein green-loaded healthy human blood flowing through a collagen-I coated microfluidics chamber at 40 dyn/cm^2 and imaged by confocal microscopy for adherent thrombus (green puncta) at three minutes. […] Differences between groups was assessed by the student's t-test, * P<0.0001 vs. vehicle. […]
(§4) Healthy human blood loaded with the fluorophore calcein green at room temperature (10 μM, pH 7.4 for 20 minutes), and incubated with odorant ligands for 30 minutes. […] D-flow shear cannot be accurately determined, though the same rotational speed was used with S-flow and D-flow always run alongside no flow (static) conditions for internal consistency. Following exposure to S-flow or D-flow, platelets were imaged by confocal microscopy, surface marker proteins were determined quantitatively by flow cytometry, and platelet proteins were assessed by Western blotting.
(§5) We next evaluated biomechanical platelet activation by S-flow and D-flow. […]

MMP2 [6] = assay: Platelet lysate MMP2 activity by zymography in AAA model; settings: isolated platelets from treated wild-type mice, week 4 following AAA
human platelets = assay: cAMP generation in human platelets; format: cell-based; settings: 300 μM, 5 minutes, n=7
Description: as §1, §2

[7] = tested on: platelets from FVB/tac mice; assay: Ex vivo thrombin-stimulated platelet activation after in vivo dosing; design: species or system mouse; settings: 100 mg/Kg/day i.p. for three days
Experimental: (§6) FIG. 7. Biomechanical platelet activation is inhibited by OR2L13 agonists. A. In vitro exposure of healthy platelets to steady laminar flow (S-flow) or disturbed flow (D-flow) for 60 mins after 30 minute pre-treatment with vehicle or (−) Carvone (300 μM). Platelet activation quantified by surface p-selectin expression as mean fluorescence intensity (MFI)±SEM, n=3 in each group by 2-way ANOVA. B. Calcein green-loaded healthy human blood flowing through a collagen-I coated microfluidics chamber at 40 dyn/cm^2 and imaged by confocal microscopy for adherent thrombus (green puncta) at three minutes. Data are represented as mean thrombus area of random fields±SEM, n=6-7 in each group following 30 minutes of vehicle (0.25% DMSO) or (−) carvone treatment (300 μM). Differences between groups was assessed by the student's t-test, * P<0.0001 vs. vehicle. C. WT Fvb/tac mice were given 100 mg/Kg/day (−) carvone IP for 3 days. Platelets were isolated and stimulated in the presence of thrombin. […] D. Time to hemostasis in mice treated with (−) carvone following surgical amputation of tail tip in seconds±SEM, n=6-9 in each group, *P=0.0046 vs. vehicle by Mann Whitney U.
(§7) To ascertain whether exogenous (−) carvone in mice impacted platelet reactivity and thrombosis in vivo, FVB/tac mice were administered (−) carvone at a dose of 100 mg/Kg/day for three days by i.p. injection. […]

MMP2 [8] = assay: Aortic lysate MMP activity by zymography in AAA model; format: in vivo, mouse; settings: daily 100 mg/Kg i.p., aortic lysate at week 4 following AAA
Description: We previously reported that platelet matrix metalloproteinase (MMP) activity is increased in myocardial infarction (7, 27). Given that patients with AAA show less aortic growth and rupture when taking aspirin and growth and rupture are linked to MMP activity (10), we hypothesized that circulating platelets in patients with AAA may synthesize and secrete MMPs. Platelet MMP9 activity was enhanced and the MMP9 Tissue Inhibitor of MMP9 (TIMP1) was reduced in AAA compared to healthy conditions (FIG. 9A). Platelet MMP9 content was unchanged in healthy compared with AAA platelets. Aortic tissue as well as luminal thrombus from patients with infrarenal AAA compared to non-aneurysmal cadaveric aorta had increased expression and activity of MMP9.

FVB/tac mice [9] = assay: Tail bleeding time (time to hemostasis after tail tip amputation); format: in vivo, mouse; settings: 100 mg/Kg/day i.p. for three days
Experimental: as §6, §7

healthy platelets [10] = assay: Flow cone and plate exposure to S-flow or D-flow, surface p-selectin by FACS; format: cell-based, human; settings: 300 μM, 30 minute pre-treatment, 60 mins flow
Experimental: as §3, §4, §5

healthy platelets [11] = assay: Platelet chloride efflux (MQAE fluorescence); format: cell-based, human; settings: 300 μM, n=4
Description: as §1, §2

CC(=O)Oc1ccccc1C(=O)O [aspirin, reference compound]
AAA growth in patients [1]: limits AAA growth | AAA growth (aortic diameter by ultrasound) (FVB/tac mice [2]; 30 mg/L in drinking water starting at day 7, fvb/tac mice): attenuated AAA growth similarly to aspirin

CCCSc1nc(N[C@@H]2C[C@H]2c2ccc(F)c(F)c2)c2nnn([C@@H]3C[C@H](OCCO)[C@@H](O)[C@H]3O)c2n1 [ticagrelor]
AAA growth in patients (patients with small AAA): did not alter AAA growth

C=C(C)[C@@H]1CC=C(C)C(=O)C1 (single isomer, unassigned) [(−) carvone]
local brief calcium transients above baseline (healthy platelets [3]): 20-80% | circulating platelet number [4]: without affecting the circulating platelet number

C=C(C)C1CC=C(C)C(=O)C1 (single isomer, unassigned; (-)) [(−) carvone]
ADP-induced platelet aggregation ([5]; 0-500 μM): blunted ADP-induced platelet aggregation dose-dependently | anti-platelet effect, (−) versus (+) enantiomer ([5]; 300 μM): more potent anti-platelet effect | thrombosis in whole blood (thrombus area) (healthy human blood): attenuated | platelet MMP2 activity compared to control mice (MMP2 [6]): decreased | cAMP generation in platelets (human platelets): generates cAMP | thrombin-induced platelet degranulation ex vivo [7]: inhibited | MMP2 activity in the aorta (MMP2 [8]): decreased MMP2 activity in the aorta | tail bleeding times (FVB/tac mice [9]): prolonged | AAA growth (aortic diameter by ultrasound) (FVB/tac mice [2]; 100 mg/Kg/day i.p. starting at day 7, fvb/tac mice): attenuated AAA growth | S-flow / D-flow induced platelet activation (surface p-selectin) (healthy platelets [10]): attenuated only D-flow induced platelet activation | chloride efflux (healthy platelets [11]): promotes chloride efflux
